Test results published in patent US10947220B2, “Anti-proprotein convertase subtilisin kexin type 9 (anti-PCSK9) compounds and methods of using the same in the treatment and/or prevention of cardiovascular diseases” (Shifa Biomedical Corporation, priority 2016, dated 2021).
Read-outs that look alike come from different tables or passages of the source.

How the values were obtained:
[1] = system: HepG2 cells; test: Uptake of fluorescent Dil-LDL in HepG2 cells transfected with PCSK9; type: cell-based; conditions: 1.2 uM compound
Procedure: The SBC compounds were validated for their ability to increase uptake of Fluorescent Dil-LDL in HepG2 cells.
The SBC compounds were validated for their ability to increase uptake of Fluorescent Dil-LDL in HepG2 cells as described in FIG. 9.
In order to confirm that these PCSK9 antagonists upregulate functional LDLR, we tested the ability of these compounds to enhance the uptake of fluorescent Dil-LDL in HepG2 cells. Briefly, HepG2 cells transfected with PCSK9 (FIG. 4) were plated and allowed to grow overnight. Compounds were added to the cells followed by the addition of fluorescent Dil-LDL. Cells were washed extensively, and the fluorescent Dil-LDL taken up by the cells were measured using the Synergy 2 plate reader (FIG. 9 and FIG. 12). […] These compounds were selected for further analysis in the in vivo studies.

[2] = biological target: T1, PCSK9/LDLR interaction (His-tagged PCSK9, recombinant LDLR-AB domain) (Homo sapiens, UniProt Q8NBP7); test: PCSK9/LDLR binding in vitro ELISA (Circulex kit)
T1 construct: purchased Circulex
T1 sequence (Q8NBP7 153-692): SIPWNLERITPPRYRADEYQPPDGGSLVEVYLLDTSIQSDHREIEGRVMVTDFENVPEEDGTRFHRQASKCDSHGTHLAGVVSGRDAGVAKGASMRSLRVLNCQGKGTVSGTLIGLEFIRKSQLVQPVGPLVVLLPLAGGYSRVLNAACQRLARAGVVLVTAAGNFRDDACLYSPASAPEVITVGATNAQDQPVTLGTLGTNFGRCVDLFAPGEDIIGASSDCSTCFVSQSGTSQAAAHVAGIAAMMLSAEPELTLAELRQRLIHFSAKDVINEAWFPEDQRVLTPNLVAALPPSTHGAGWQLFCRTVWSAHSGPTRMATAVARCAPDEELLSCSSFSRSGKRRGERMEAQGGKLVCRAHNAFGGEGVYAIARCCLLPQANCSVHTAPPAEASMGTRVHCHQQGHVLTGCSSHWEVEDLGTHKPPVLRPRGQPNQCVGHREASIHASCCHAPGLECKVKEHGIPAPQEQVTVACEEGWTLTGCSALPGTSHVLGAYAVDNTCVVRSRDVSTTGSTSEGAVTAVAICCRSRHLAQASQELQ
T1 sequence (Q8NBP7 31-152 partner limits assumed): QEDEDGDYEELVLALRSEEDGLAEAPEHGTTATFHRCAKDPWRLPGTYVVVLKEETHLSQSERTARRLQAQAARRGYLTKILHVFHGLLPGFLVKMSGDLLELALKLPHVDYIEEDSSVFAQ
Procedure: For screening inhibitors of the PCSK9/LDLR interaction, different concentrations (0.01 nM-100 μM) of selected compounds were incubated with His-tagged PCSK9 and then added to wells that were pre-coated with recombinant LDLR-AB domain. After incubation, the plate was washed and the amount of recombinant His-tagged PCSK9 was measured using the biotinylated anti-His-tag and horseradish peroxidase conjugated Streptavidin, and quantitated using a BioTek Synergy 2 plate reader. The effect of each compound on the PCSK9 binding to the recombinant LDLR-AB domain was calculated.
Testing of compounds acquired from commercial sources was performed in our binding assay for their potential to inhibit the PCSK9/LDLR interaction. Initial screening was done using 100 μM of the compounds. Each compound was added to the binding reaction mixture in triplicate and assayed as described above. From the screening, a number of compounds were identified to have an effect on LDLR upregulation as compared to control (see Example 3 vide infra) while having no effect on PCSK9 processing and secretion (see Example 2 vide infra). Exemplary 2-carboxyanilide indoles and 2-carboxanilide pyrroles of the formula I that had >20% inhibition at 100 uM are shown in FIG. 1. Fifty five (55) structurally related 2-carboxyanlide benzofurans (compounds of the formulas II-IV) were also acquired. Compounds that inhibited the PCSK9/LDLR interaction were selected and analyzed using different compound concentrations ranging from 100 μM to 0.01 nM. […] (FIG. 4). Based on this preliminary SAR, an additional 34 compounds were designed and synthesized around SBC-115,337, and the compounds were tested in our binding assay as described in FIG. 4. From the screening, a number of benzofuran compounds were determined to have IC50's>10 uM but less </=50 uM (FIG. 2).

[3] = system: plasma LDL-C; test: Efficacy in mice fed high fat diet (plasma LDL-C); type: in vivo, C57BL/6 mice
Procedure: C57/Black 6 mice and BalB/C mice were maintained on the HFD for 4 weeks. Blood plasma was collected at day 1 prior to injection of the SBC compounds. Blood plasma was collected at day 4, at 4 hours after the LPS injection, and again at 24 hours after LPS injection. Plasma cholesterol, LDL-C, HDL-C, and triglyceride levels were measured enzymatically.
Blood plasma was collected at day 1 prior to injection of the compounds. Blood plasma was collected again at day 5. Plasma LDL-C levels was measured enzymatically. (FIG. 15A) Representing the actual change in the LDL-C in mg/dL and (FIG. 15B) representing the % reduction of LDL-C after the administration of SBC-115,418 for 5 days.
SBC-115,337 was tested for efficacy in male mice (C57BL/6 mice). Mice were housed as four animals per cage under climate-controlled conditions of temperature (20-24° C.), humidity (60-70%), and alternating 12 h light/dark cycles. […]
Blood samples (75 μl) were collected 4 days after drug administration from the retro-orbital venous plexus via heparinized capillary tubes containing 2 USP units of ammonium heparin per tube (Carolina, Burlington, N.C.). […] Plasma cholesterol, LDL-C, HDL-C, and triglyceride levels were measured enzymatically.
Similarly, SBC-115,418 was tested in mice as described above. […] Plasma LDL-C levels were measured enzymatically. […]

[4] = system: PCSK9 synthesis, processing and secretion; test: Test for secreted PCSK9 (western blot) in transfected HEK-293T cells; type: cell-based; conditions: 25 μM, 43 hours; cells and media
Procedure: HEK-293T cells were seeded into 96 well plates in a DMEM containing 10% Fetal Bovine Serum media and incubated overnight at 37° C. Cells were transiently transfected with cDNA construct using the Lipofectamine-LTX. Compounds (25 μM) or vehicle were added, followed by additional 43 hours of incubation. Cellular PCSK9, secreted PCSK9, and cell viability were analyzed as described in Example 2 below.
The SBC compounds were validated for their ability to affect PCSK9 synthesis, processing and secretion as described in relation to FIG. 5.
The increase in the level of recombinant LDLR in the presence of PCSK9 by the above compounds could be either due to inhibiting the binding of PCSK9 to the LDLR or by inhibiting the processing and secretion of PCSK9. To eliminate the possibility these compounds interfere with PCSK9 synthesis, processing or secretion, we tested the effect of these compounds on the processing and secretion of PCSK9 as described above. HEK-293T cells were seeded into 96-well plates in a DMEM containing 10% Fetal Bovine Serum media and incubated overnight at 37° C. Cells were transiently transfected with cDNA construct using the Lipofectamine-LTX. Compounds (25 μM) or vehicle were added, followed by additional 43 hours of incubation. Cellular PCSK9, secreted PCSK9, and cell viability were analyzed for PCSK9 secretion using western blot analysis, imaged and quantitated using a LAS-4000 (GE).

[5] = system: LDLR; test: Recombinant LDLR upregulation in HEK-293 cells transfected with LDLR/PCSK9; type: cell-based, human; conditions: recombinant LDLR upregulation assay
Procedure: HEK-293T cells were seeded in a DMEM containing 10% Fetal Bovine Serum media and incubated overnight at 37° C. Cells were transiently transfected with LDLR & PCSK9 cDNA constructs using the Lipofectamine-LTX as described above. After 24 hrs, cells were treated with different compounds and incubated for an additional 48 hrs. Cells were assayed as described above for LDLR expression.
HEK-293T cells were assayed as described in relation to FIG. 7.
We have constructed the expression vector of human LDLR under the control of the cytomegalovirus promoter-enhancer (pCMV-LDLR). In addition, a construct containing the PCSK9 (pCMV-PCSK9-FLAG) was described above. These constructs were used to transiently transfect mammalian cells, and both cell lysate and supernatant were subjected to SDS-PAGE and immunoblot analysis using an anti-PCSK9 or LDLR antibody. […] Addition of inhibitors of PCSK9 processing to the latter cells should result in decreased degradation of the LDLR and the appearance of the 160K Dalton band on the gel. Using this assay, we tested our compounds for their ability to reduce the degradation of the LDLR. HEK-293 cells were used in this assay. They were grown in 96-well plates overnight, and transfected with LDLR/PCSK9. Compounds dissolved in DMSO or vehicle were added to the culture media, and incubated for 24-48 hours; cells were lysed. Cell lysates were subjected to quantitation using the above immunoassay.

[6] = bounds stated for compounds of FIG. 2 and FIG. 3, read-out: in vitro inhibition of the PCSK9/LDLR interaction (IC50)
[7] = compound concentrations 100 μM to 0.01 nM, FIG. 4, read-out: IC50, inhibition of the PCSK9/LDLR interaction
[8] = Table 1 / FIG. 11, SAR around SBC-115,337, read-out: IC-50

Row | SMILES | fluorescent Dil-LDL uptake [1] | IC50 [2, 6] [µM] | IC50 [2, 7] [µM] | reduction in LDL-C levels relative to high fat diet animal levels ([3]; 3 mg/kg subcutaneously daily for 4 days, with or without LPS (5 mg/Kg), FIG. 10) | IC50 [2, 8] [µM] | effect on PCSK9 synthesis, processing and secretion [4] | level of LDLR as compared to control (DMSO-treated cells) [5] | reduction in LDL-C levels relative to high fat diet animal levels ([3]; 10 mg/kg oral daily for 5 days, FIG. 15A-15B)
1 | COc1cccc2cc(C(=O)Nc3ccc4c(c3)C(=O)N(C)C4=O)oc12 [SBC-115,202] | increase in fluorescently labeled LDL uptake | < 10 | 9.5 | – | – | – | – | –
2 | COc1ccc2oc(C(=O)Nc3ccc(C(N)=O)cc3)c(C)c2c1 [SBC-115,270] | increase in fluorescently labeled LDL uptake | < 10 | 7 | – | – | – | – | –
3 | O=C(Nc1ccc(-c2nc3ccccc3o2)cc1)c1ccc(NC(=O)c2cc3ccccc3o2)cc1 [SBC-115,337] | increase in fluorescently labeled LDL uptake | < 10 | 0.5 | 20-25% | 0.6 | – | – | –
4 | CN1C(=O)c2ccc(NC(=O)c3cc4ccccc4o3)cc2C1=O [SBC-115,341] | – | < 10 | – | – | – | – | – | –
5 | COc1ccc2oc(C(=O)Nc3ccc(C(=O)Nc4ccc(-c5nc6ccccc6o5)cc4)cc3)c(C)c2c1 [SBC-115,418] | significant increases in the Dil-LDL uptake | < 10 | – | – | 1.6 | not due to its effect on synthesis and secretion of PCSK9 | significant increase in the level of LDLR | 20-25%
6 | CN(C(=O)c1ccc(NC(=O)c2cc3ccccc3o2)cc1)c1ccc(-c2nc3ccccc3o2)cc1 [SBC-115,423] | – | < 10 | – | – | 8.2 | – | – | –
7 | NC(=O)c1ccc(NC(=O)c2ccc(NC(=O)c3cc4ccccc4o3)cc2)cc1 [SBC-115,424] | significant increases in the Dil-LDL uptake | < 10 | – | – | 1.7 | not due to its effect on synthesis and secretion of PCSK9 | significant increase in the level of LDLR | –
8 | O=C(Nc1ccc(C2=NCCO2)cc1)c1ccc(NC(=O)c2cc3ccccc3o2)cc1 [SBC-115,432] | significant increases in the Dil-LDL uptake | < 10 | – | – | 1.1 | not due to its effect on synthesis and secretion of PCSK9 | significant increase in the level of LDLR | –
9 | O=C(Nc1ccc(-c2ncco2)cc1)c1ccc(NC(=O)c2cc3ccccc3o2)cc1 [SBC-115,433] | significant increases in the Dil-LDL uptake | < 10 | – | – | 2.4 | not due to its effect on synthesis and secretion of PCSK9 | significant increase in the level of LDLR | –
10 | COc1cccc2c(C)c(C(=O)Nc3ccc(C(=O)Nc4ccc(-c5ncco5)cc4)cc3)oc12 [SBC-115,445] | – | < 10 | – | – | 2.2 | – | – | –
